In the NIST ThermoML archive (doi:10.1016/j.fluid.2014.03.017):
± gives the expanded uncertainty stated by the source.

Test: molar heat capacity at constant pressure
Settings: Liquid, Flow calorimetry

CCOC(F)(C(F)(F)C(F)(F)C(F)(F)F)C(F)(C(F)(F)F)C(F)(F)F (centres undefined) [2-trifluoromethyl-3-ethoxydodecafluorohexane]
molar heat capacity at constant pressure [J/K/mol]
Settings	100 kPa	5000 kPa	10000 kPa	15000 kPa
248.45 K	309.34 ± 12	304.79 ± 12	300.64 ± 12	300.23 ± 12
254.4 K	329.22 ± 13	325.49 ± 13	320.94 ± 13	319.28 ± 13
264.24 K	362.35 ± 14	358.21 ± 14	354.07 ± 14	351.17 ± 14
273.51 K	393.82 ± 16	390.92 ± 16	387.19 ± 15	380.98 ± 15
283.77 K	428.61 ± 17	428.19 ± 17	426.12 ± 17	414.53 ± 17
294.36 K	470.02 ± 19	463.8 ± 19	461.73 ± 19	456.35 ± 18
304.12 K	490.31 ± 19	485.34 ± 19	484.1 ± 19	476.23 ± 19
313.92 K	531.72 ± 21	528.41 ± 21	526.75 ± 21	516.81 ± 21
323.65 K	565.26 ± 23	559.05 ± 22	547.87 ± 22	543.31 ± 22
333.47 K	587.21 ± 24	578.1 ± 23	571.47 ± 23	565.68 ± 23
343.39 K	629.04 ± 25	620.75 ± 25	612.88 ± 24	606.67 ± 24
353.38 K	669.2 ± 27	656.78 ± 26	653.88 ± 26	649.74 ± 26

CCOC(F)(F)C(F)(F)C(F)(F)C(F)(F)F [1-ethoxy-1,1,2,2,3,3,4,4,4-nonafluorobutane]
Settings	molar heat capacity at constant pressure [J/K/mol]
245.62 K, 100 kPa	307.66 ± 12
245.63 K, 10000 kPa	295.52 ± 12
245.64 K, 5000 kPa	299.74 ± 12
245.64 K, 15000 kPa	286.54 ± 11
254.42 K, 100 kPa	317.7 ± 13
254.44 K, 5000 kPa	310.04 ± 12
254.44 K, 10000 kPa	305.81 ± 12
254.44 K, 15000 kPa	297.89 ± 12
264.28 K, 100 kPa	328.53 ± 13
264.29 K, 10000 kPa	319.55 ± 13
264.3 K, 5000 kPa	321.66 ± 13
264.3 K, 15000 kPa	307.4 ± 12
274.14 K, 100 kPa	337.24 ± 13
274.16 K, 10000 kPa	328.26 ± 13
274.17 K, 5000 kPa	332.49 ± 13
274.17 K, 15000 kPa	318.23 ± 13
283.97 K, 100 kPa	343.58 ± 14
283.98 K, 10000 kPa	340.67 ± 14
283.99 K, 5000 kPa	338.83 ± 13
283.99 K, 15000 kPa	333.02 ± 13
293.9 K, 100 kPa	365.5 ± 15
293.92 K, 10000 kPa	356.52 ± 14
293.93 K, 5000 kPa	360.75 ± 15
293.93 K, 15000 kPa	344.64 ± 14
303.85 K, 100 kPa	373.69 ± 15
303.85 K, 10000 kPa	364.71 ± 15
303.86 K, 5000 kPa	368.93 ± 15
303.86 K, 15000 kPa	356.52 ± 14
313.79 K, 100 kPa	389.8 ± 16
313.9 K, 10000 kPa	377.91 ± 15
313.91 K, 5000 kPa	385.04 ± 15
313.91 K, 15000 kPa	369.2 ± 15
323.6 K, 100 kPa	393.76 ± 16
323.62 K, 10000 kPa	384.78 ± 15
323.63 K, 5000 kPa	389 ± 16
323.63 K, 15000 kPa	384.51 ± 15
333.28 K, 100 kPa	407.23 ± 16
333.29 K, 5000 kPa	402.47 ± 16
333.29 K, 10000 kPa	398.25 ± 16
333.29 K, 15000 kPa	399.04 ± 16
343.51 K, 100 kPa	419.9 ± 17
343.52 K, 10000 kPa	410.92 ± 16
343.53 K, 5000 kPa	414.88 ± 17
343.53 K, 15000 kPa	407.49 ± 16
353.61 K, 100 kPa	431.79 ± 17
353.62 K, 10000 kPa	422.81 ± 17
353.63 K, 5000 kPa	426.77 ± 17
353.63 K, 15000 kPa	420.43 ± 17

O [water]
molar heat capacity at constant pressure [J/K/mol]
Settings	100 kPa	5000 kPa	10000 kPa	15000 kPa
294.2 K	–	–	73.7 ± 3	–
294.24 K	74.96 ± 3	74.89 ± 3	–	–
294.27 K	–	–	–	74.67 ± 3
303.93 K	75.43 ± 3	–	–	–
303.97 K	–	75.34 ± 3	–	76.01 ± 3
303.98 K	–	–	75.05 ± 3	–
313.68 K	76.44 ± 3.1	–	75.93 ± 3	–
313.69 K	–	76.02 ± 3	–	75.83 ± 3
323.43 K	76.28 ± 3	75.84 ± 3	75.47 ± 3	74.96 ± 3
333.33 K	75.9 ± 3	75.47 ± 3	75.23 ± 3	75.11 ± 3
343.28 K	76.31 ± 3.1	75.95 ± 3	75.29 ± 3	75.07 ± 3
353.25 K	–	75.84 ± 3	75.63 ± 3	75.25 ± 3
353.26 K	76.04 ± 3	–	–	–
